Experimental data from ChEMBL document CHEMBL3045659, “Molecular docking studies on analogues of quercetin with d-alanine:d-alanine ligase of Helicobacter pylori” (Med Chem Res, 2013).
In brackets after ≈: the same amount, converted by molar mass.

Key:
Escherichia coli [1] = test: Antibacterial activity against Escherichia coli 25922 assessed as growth inhibition; type: functional
Helicobacter pylori [2] = test: Antibacterial activity against Helicobacter pylori 43504 assessed as growth inhibition; type: functional
Escherichia coli [3] = test: Antibacterial activity against Escherichia coli JM019 assessed as growth inhibition; type: functional
Helicobacter pylori [4] = test: Antibacterial activity against Helicobacter pylori SS1 assessed as growth inhibition; type: functional
[5] = target: T1, D-alanine--D-alanine ligase (Helicobacter pylori (strain HPAG1), UniProt Q1CTD3); test: Competitive inhibition of Helicobacter pylori Ddl using ATP as substrate
T1 sequence (Q1CTD3 whole entry): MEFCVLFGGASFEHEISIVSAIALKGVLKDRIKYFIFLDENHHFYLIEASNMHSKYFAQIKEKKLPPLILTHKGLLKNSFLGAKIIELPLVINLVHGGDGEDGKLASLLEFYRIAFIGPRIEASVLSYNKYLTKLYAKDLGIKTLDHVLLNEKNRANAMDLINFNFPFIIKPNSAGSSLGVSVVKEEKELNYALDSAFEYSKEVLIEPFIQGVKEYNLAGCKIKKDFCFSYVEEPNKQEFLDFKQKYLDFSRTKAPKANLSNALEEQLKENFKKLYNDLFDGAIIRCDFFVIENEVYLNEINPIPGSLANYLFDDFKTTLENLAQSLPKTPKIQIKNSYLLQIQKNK

[6] = target: D-alanine--D-alanine ligase B (Escherichia coli K-12, UniProt P07862); test: Competitive inhibition of Escherichia coli DdlB using ATP as substrate
[7] = target: T1, D-alanine--D-alanine ligase; test: Binding affinity to Helicobacter pylori Ddl by surface plasmon resonance biosensor technology

Compound | MIC (Escherichia coli [1]) | MIC (Helicobacter pylori [2]) | MIC (Escherichia coli [3]) | MIC (Helicobacter pylori [4]) | IC50 [5] | Ki [5] | IC50 [6] | Kd [7]
O=c1cc(-c2ccc(O)cc2)oc2cc(O)cc(O)c12 [APIGENIN] | > 200 µg/mL | 25 µg/mL (≈ 92.5 µM) | 200 µg/mL (≈ 740 µM) | 25 µg/mL (≈ 92.5 µM) | 133 µM | 31 µM | 163 µM | –
O=c1c(O)c(-c2ccc(O)c(O)c2)oc2cc(O)cc(O)c12 [QUERCETIN] | 300 µg/mL (≈ 993 µM) | 100 µg/mL (≈ 331 µM) | 300 µg/mL (≈ 993 µM) | 200 µg/mL (≈ 662 µM) | 48.5 µM | 4.3 µM | 19.9 µM | 12.9 µM
